Laboratory results taken from PubChem BioAssay (NCI).
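Where inhibition never reached the appropriate level, the endpoint shown equals the highest concentration tested. Otherwise, values were interpolated linearly from a five-concentration, 48-hour dose response in 96-well plates. TGI is the concentration that stops growth completely.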

Columns and labels:
Assay in all cases: NCI-60 cell line screen, 48 h
MDA-MB-435 = system: MDA-MB-435
HT29 colon = system: HT29 colon
SK-MEL-28 melanoma = system: SK-MEL-28 melanoma
A498 renal = system: A498 renal
UACC-257 melanoma = system: UACC-257 melanoma
MDA-N = system: MDA-N
SF-539 CNS = system: SF-539 CNS
KM12 colon = system: KM12 colon
SF-268 CNS = system: SF-268 CNS
MCF7 breast = system: MCF7 breast
TK-10 renal = system: TK-10 renal
UACC-62 melanoma = system: UACC-62 melanoma
ACHN renal = system: ACHN renal
IGROV1 ovarian = system: IGROV1 ovarian
HOP-92 NSCLC = system: HOP-92 NSCLC
SW-620 colon = system: SW-620 colon
NCI-H460 lung = system: NCI-H460 lung
EKVX NSCLC = system: EKVX NSCLC
OVCAR-4 ovarian = system: OVCAR-4 ovarian
NCI/ADR-RES ovarian = system: NCI/ADR-RES ovarian
SF-295 CNS = system: SF-295 CNS
HS 578T breast = system: HS 578T breast
MALME-3M melanoma = system: MALME-3M melanoma
UO-31 renal = system: UO-31 renal
NCI-H23 lung = system: NCI-H23 lung
T-47D breast = system: T-47D breast
U251 CNS = system: U251 CNS
NCI-H226 lung = system: NCI-H226 lung
OVCAR-8 ovarian = system: OVCAR-8 ovarian
HCT-116 colon = system: HCT-116 colon
PC-3 prostate = system: PC-3 prostate
SK-MEL-5 melanoma = system: SK-MEL-5 melanoma
OVCAR-3 ovarian = system: OVCAR-3 ovarian
HCC-2998 colon = system: HCC-2998 colon
DU-145 prostate = system: DU-145 prostate
A549 NSCLC = system: A549 NSCLC
CAKI-1 renal = system: CAKI-1 renal
MOLT-4 leukemia = system: MOLT-4 leukemia
K-562 leukemia = system: K-562 leukemia
MDA-MB-231 breast = system: MDA-MB-231 breast
RXF 393 renal = system: RXF 393 renal
M14 melanoma = system: M14 melanoma
SR leukemia = system: SR leukemia
LOX IMVI melanoma = system: LOX IMVI melanoma
RPMI-8226 leukemia = system: RPMI-8226 leukemia
HOP-62 NSCLC = system: HOP-62 NSCLC
SN12C renal = system: SN12C renal
SK-OV-3 ovarian = system: SK-OV-3 ovarian
HL-60(TB) leukemia = system: HL-60(TB) leukemia
SK-MEL-2 melanoma = system: SK-MEL-2 melanoma
OVCAR-5 ovarian = system: OVCAR-5 ovarian
COLO 205 colon = system: COLO 205 colon
NCI-H522 lung = system: NCI-H522 lung
SNB-75 CNS = system: SNB-75 CNS
SNB-19 CNS = system: SNB-19 CNS
786-0 renal = system: 786-0 renal
CCRF-CEM leukemia = system: CCRF-CEM leukemia
HCT-15 colon = system: HCT-15 colon
BT-549 breast = system: BT-549 breast

Measured: TGI

O=C(CCCN1CCC2(CC1)CC(c1ccccc1)OC2=O)c1ccc(F)cc1 (stereo not given)
54.2 µM: SNB-75 CNS
52.1 µM: UACC-257 melanoma
97.1 µM: KM12 colon
30.9 µM: M14 melanoma
95.2 µM: HS 578T breast
62.1 µM: MOLT-4 leukemia
40.1 µM: SR leukemia
82.3 µM: CAKI-1 renal
76.9 µM: HOP-92 NSCLC
44 µM: MALME-3M melanoma
36.1 µM: SK-MEL-5 melanoma
67.5 µM: 786-0 renal
61.9 µM: UACC-62 melanoma
65.8 µM: K-562 leukemia
73.2 µM: HCC-2998 colon
60.9 µM: SF-295 CNS
73.7 µM: HOP-62 NSCLC
> 100 µM: MDA-MB-435 | SK-MEL-28 melanoma | MDA-N | SF-268 CNS | MCF7 breast | TK-10 renal | ACHN renal | IGROV1 ovarian | SW-620 colon | NCI-H460 lung | EKVX NSCLC | OVCAR-4 ovarian | NCI/ADR-RES ovarian | UO-31 renal | NCI-H23 lung | U251 CNS | NCI-H226 lung | OVCAR-8 ovarian | HCT-116 colon | PC-3 prostate | OVCAR-3 ovarian | DU-145 prostate | A549 NSCLC | MDA-MB-231 breast | RXF 393 renal | SN12C renal | SK-OV-3 ovarian | HL-60(TB) leukemia | SK-MEL-2 melanoma | OVCAR-5 ovarian | NCI-H522 lung | SNB-19 CNS | CCRF-CEM leukemia | HCT-15 colon
51.3 µM: RPMI-8226 leukemia
45.1 µM: LOX IMVI melanoma
69.1 µM: T-47D breast
35.2 µM: HT29 colon
53.1 µM: SF-539 CNS
35.4 µM: COLO 205 colon
74.5 µM: A498 renal

Nc1n[n+](CC(=O)c2ccccc2)c2sc(-c3ccccc3)nn12
> 100 µM: MDA-MB-435 | HT29 colon | SK-MEL-28 melanoma | A498 renal | UACC-257 melanoma | MDA-N | SF-539 CNS | KM12 colon | SF-268 CNS | MCF7 breast | TK-10 renal | BT-549 breast | ACHN renal | IGROV1 ovarian | SW-620 colon | NCI-H460 lung | EKVX NSCLC | OVCAR-4 ovarian | NCI/ADR-RES ovarian | SF-295 CNS | HS 578T breast | MALME-3M melanoma | UO-31 renal | NCI-H23 lung | T-47D breast | U251 CNS | NCI-H226 lung | OVCAR-8 ovarian | HCT-116 colon | PC-3 prostate | SK-MEL-5 melanoma | OVCAR-3 ovarian | DU-145 prostate | A549 NSCLC | CAKI-1 renal | MOLT-4 leukemia | K-562 leukemia | MDA-MB-231 breast | RXF 393 renal | M14 melanoma | LOX IMVI melanoma | RPMI-8226 leukemia | HOP-62 NSCLC | SN12C renal | SK-OV-3 ovarian | SK-MEL-2 melanoma | OVCAR-5 ovarian | COLO 205 colon | NCI-H522 lung | SNB-75 CNS | SNB-19 CNS | 786-0 renal | CCRF-CEM leukemia | HCT-15 colon
82.7 µM: UACC-62 melanoma

CC(=O)C1C(=O)C(=O)N(c2cccc([N+](=O)[O-])c2)C1=O (stereo not given)
> 100 µM: MDA-MB-435 | HT29 colon | SK-MEL-28 melanoma | UACC-257 melanoma | MDA-N | SF-539 CNS | KM12 colon | SF-268 CNS | MCF7 breast | TK-10 renal | UACC-62 melanoma | BT-549 breast | ACHN renal | IGROV1 ovarian | HOP-92 NSCLC | SW-620 colon | NCI-H460 lung | EKVX NSCLC | OVCAR-4 ovarian | NCI/ADR-RES ovarian | SF-295 CNS | HS 578T breast | UO-31 renal | NCI-H23 lung | U251 CNS | NCI-H226 lung | OVCAR-8 ovarian | HCT-116 colon | PC-3 prostate | SK-MEL-5 melanoma | OVCAR-3 ovarian | HCC-2998 colon | DU-145 prostate | A549 NSCLC | CAKI-1 renal | MOLT-4 leukemia | MDA-MB-231 breast | RXF 393 renal | M14 melanoma | LOX IMVI melanoma | HOP-62 NSCLC | SN12C renal | SK-OV-3 ovarian | HL-60(TB) leukemia | SK-MEL-2 melanoma | OVCAR-5 ovarian | COLO 205 colon | NCI-H522 lung | SNB-75 CNS | SNB-19 CNS | 786-0 renal | CCRF-CEM leukemia | HCT-15 colon

O=C(NNCC(O)COc1ccccc1)c1ccccc1 (stereo not given)
> 100 µM: MDA-MB-435 | HT29 colon | SK-MEL-28 melanoma | A498 renal | UACC-257 melanoma | MDA-N | SF-539 CNS | KM12 colon | MCF7 breast | TK-10 renal | UACC-62 melanoma | ACHN renal | IGROV1 ovarian | HOP-92 NSCLC | SW-620 colon | EKVX NSCLC | OVCAR-4 ovarian | NCI/ADR-RES ovarian | SF-295 CNS | MALME-3M melanoma | UO-31 renal | NCI-H23 lung | T-47D breast | U251 CNS | NCI-H226 lung | OVCAR-8 ovarian | HCT-116 colon | PC-3 prostate | SK-MEL-5 melanoma | OVCAR-3 ovarian | HCC-2998 colon | DU-145 prostate | A549 NSCLC | CAKI-1 renal | MOLT-4 leukemia | K-562 leukemia | MDA-MB-231 breast | RXF 393 renal | M14 melanoma | LOX IMVI melanoma | RPMI-8226 leukemia | HOP-62 NSCLC | SN12C renal | SK-OV-3 ovarian | HL-60(TB) leukemia | SK-MEL-2 melanoma | OVCAR-5 ovarian | COLO 205 colon | NCI-H522 lung | SNB-75 CNS | SNB-19 CNS | 786-0 renal | CCRF-CEM leukemia | HCT-15 colon
